Experimental data: ChEMBL document CHEMBL4811228, “Design, Synthesis, and Activity Evaluation of Novel Acyclic Nucleosides as Potential Anticancer Agents In Vitro and In Vivo” (J Med Chem, 2021)
The source made the active and inactive calls. The calls are words filed in the database; no cut-off is given here.

Columns and labels:
SW480 [1] = experiment: Induction of apoptosis in human SW480 cells assessed as necrotic cells at 32 uM incubated for 48 hrs by Annexin V-FITC/PI staining based flow cytometry (reference value: 2.9%); format: functional
HCT-116 [2] = experiment: Inhibition of colony formation in human HCT-116 cells at 2 to 8 uM incubated for 48 hrs followed by culture medium replenishment for every 72 hrs and measured after 14 days by crystal violet staining based analysis; format: functional, cell-based; conditions: dose 2-8 µM, time 14.0 day
SW480 [3] = experiment: Induction of apoptosis in human SW480 cells assessed as necrotic cells at 16 uM incubated for 48 hrs by Annexin V-FITC/PI staining based flow cytometry (reference value: 2.9%); format: functional
[4] = Acute toxicity in BALB/c mouse assessed as animal survival at 150 mg/kg, ip administered per 4 hrs for 4 times and measured everyday for 14 days (Rb =100%); format: organism-based; conditions: in vivo, time 14 day
SW480 [5] = experiment: Potency index, ratio of 5-FU IC50 to test compound IC50 for antiproliferative activity against human SW480 cells; format: functional
[6] = Acute toxicity in ip dosed BALB/c mouse administered per 4 hrs for 4 times and measured everyday for 14 days; format: organism-based; conditions: in vivo, time 14 day
HCT-116 [7] = experiment: Induction of apoptosis in human HCT-116 cells incubated for 48 hrs by Annexin V-FITC/PI staining based flow cytometry; format: functional, cell-based; conditions: dose 2-32 µM
[8] = Half life in human liver microsomes at 0.1 uM preincubated for 10 mins followed by NADPH addition and measured up to 60 mins by LC-MS/MS analysis; format: ADME, Microsome; conditions: time 70 min
SW480 [9] = experiment: Induction of apoptosis in human SW480 cells assessed as increase in cleaved PARP protein expression at 2 to 16 uM incubated for 48 hrs by western blot analysis; format: functional, cell-based; conditions: dose 2-16 µM
HCT-116 [10] = experiment: Induction of apoptosis in human HCT-116 cells at 32 uM incubated for 48 hrs by Annexin V-FITC/PI staining based flow cytometry (reference value: 12%); format: functional
SW480 [11] = experiment: Induction of apoptosis in human SW480 cells assessed as early apoptotic cells at 32 uM incubated for 48 hrs by Annexin V-FITC/PI staining based flow cytometry (reference value: 1.87%); format: functional
SW480 [12] = experiment: Induction of apoptosis in human SW480 cells assessed as early apoptotic cells at 16 uM incubated for 48 hrs by Annexin V-FITC/PI staining based flow cytometry (reference value: 1.87%); format: functional
SW480 [13] = experiment: Induction of mitochondrial membrane potential loss in human SW480 cells assessed as cells with low MMP emitting green fluorescence at 4 uM incubated for 24 hrs by JC-1 staining based flow cytometry (reference value: 17.96%); format: functional
SW480 [14] = experiment: Induction of apoptosis in human SW480 cells assessed as viable cells at 8 uM incubated for 48 hrs by Annexin V-FITC/PI staining based flow cytometry (reference value: 90.56%); format: functional; conditions: read-out: Activity
[15] = Acute toxicity in BALB/c mouse assessed as animal survival at 250 mg/kg, ip administered per 4 hrs for 4 times and measured everyday for 14 days (reference value: 100%); format: organism-based; conditions: in vivo, time 14 day
SW480 [16] = experiment: Induction of apoptosis in human SW480 cells assessed as necrotic cells at 8 uM incubated for 48 hrs by Annexin V-FITC/PI staining based flow cytometry (reference value: 2.9%); format: functional
SW480 [17] = experiment: Induction of mitochondrial membrane potential loss in human SW480 cells assessed as cells with high MMP emitting red fluorescence at 4 uM incubated for 24 hrs by JC-1 staining based flow cytometry (reference value: 64.2%); format: functional
SW480 [18] = experiment: Induction of apoptosis in human SW480 cells assessed as late apoptotic cells at 16 uM incubated for 48 hrs by Annexin V-FITC/PI staining based flow cytometry (reference value: 4.67%); format: functional
SW480 [19] = experiment: Induction of mitochondrial membrane potential loss in human SW480 cells assessed as cells with high MMP emitting red fluorescence at 8 uM incubated for 24 hrs by JC-1 staining based flow cytometry (reference value: 64.2%); format: functional
SW480 [20] = experiment: Induction of apoptosis in human SW480 cells assessed as necrotic cells at 4 uM incubated for 48 hrs by Annexin V-FITC/PI staining based flow cytometry (reference value: 2.9%); format: functional
SW480 [21] = experiment: Induction of apoptosis in human SW480 cells assessed as early apoptotic cells at 4 uM incubated for 48 hrs by Annexin V-FITC/PI staining based flow cytometry (reference value: 1.87%); format: functional

## CCCCCCCCCC(CCO)n1cnc2c(Cl)ncnc21 (racemic)
SW480 [1]
  Activity: 3.89%
HCT-116 [2]
  inhibition: Active
SW480 [3]
  Activity: 11.01%
[4]
  survival at 336 h: 100%
SW480 [5]
  Ratio IC50: 10
[6]
  LD50 at 336 h: 220 mg/kg
HCT-116 [7]
  Activity: Dose-Dependent Effect
[8]
  half-life at 0.1 µM: 10.8 min
SW480 [9]
  Activity: Active
HCT-116 [10]
  Activity: 66%
SW480 [11]
  Activity: 55.55%
SW480 [12]
  Activity: 24.5%
SW480 [13]
  Activity: 33.02%
SW480 [14]
  viability at 8 µM: 56.5%
[15]
  survival at 336 h: 20%
SW480 [16]
  Activity: 16.97%
SW480 [17]
  Activity: 33.67%
SW480 [18]
  Activity: 20.5%
SW480 [19]
  Activity: 31.56%
SW480 [20]
  Activity: 7.76%
SW480 [21]
  Activity: 11.67%
